The values that follow come from US12516052B2, “Methyltransferase 5 (PRMT5) inhibitors and methods of treatment” (THE TRUSTEES OF INDIANA UNIVERSITY, priority 2016, dated 2026).

For assay [1], the system named is HT29 cells. As to the kind of experiment: HT29 subcutaneous xenograft tumor efficacy study in NSG mice. The format is in vivo. The settings on record: 20 mg/kg intraperitoneally 3×/week, vs vehicle control, n=4. The method, then:
NSG (NOD scid gamma) mice were obtained from the In Vivo Therapeutics Core at Indiana University School of Medicine. After acclimation for 7 days, NSG mice (6-8 weeks old) were xenografted with mycoplasma-free PANC1 or HT29 cells subcutaneously (1×10^7 PANC1 or 3×10^6 HT29 cells used per mouse in 0.2 ml of a 1:1 mix of phosphate-buffered saline and MATRIGEL™) (BD Biosciences, San Jose, CA). Mice were randomized when tumor volumes reached about 100 mm^3. Mice were treated with either vehicle control or 20 mg/kg of compound (Ia) (drug stock dissolved in 1:1 CREMOPHOR™:ethanol solution) intraperitoneally 3 times per week. Tumor volumes and body weights were measured twice a week. The study was performed in accordance with the guidelines and standards of the Institutional Animal Care and Use Committee (IACUC). […] NSG (NOD scid gamma) mice were obtained from the In Vivo Therapeutics Core at Indiana University School of Medicine. After acclimation for 7 days, NSG mice (6-8 weeks old) were xenografted with mycoplasma-free PANC1 or HT29 cells subcutaneously (1×10^7 PANC1 or 3×10^6 HT29 cells used per mouse in 0.2 ml of a 1:1 mix of phosphate-buffered saline and MATRIGEL™) (BD Biosciences, San Jose, CA). Mice were randomized when tumor volumes reached about 100 mm^3. […] Tumor volumes and body weights were measured twice a week. […]

The next assay has as its system PANC1 cells. As to the kind of experiment: Anchorage-independent (soft agar) growth assay in PANC1 cells. The format is cell-based. The settings on record: increasing concentrations. How it is done: (§1) The ability to form colonies suspended in soft agar is a characteristic of cancer cells. By using the stable cell lines established above, an anchorage-independent assay in soft agar was conducted. 2.5% and 1.25% agar were used to prepare the bottom and top layers of the soft agar, respectively. The bottom agar was added to each well of a 6-well plate. 2×10^5 cells for each cell line were then added and mixed into top agar solution and layered on top of the bottom layer. The plates were incubated for 10-20 days at 37° C. and 5% CO2. Images were captured using a Canon EOS Rebel T3i Digital SLR camera (Canon, Woodridge, IL) and quantification of colony size and number was performed using ImageJ. […] A soft agar experiment was also performed to determine the effect of compound (IIa) on colony growth.

Another assay concerns the target T1, PRMT5 (Homo sapiens, UniProt O14744).
T1 construct: Flag; made in house; host or cells: 293 cells
In words: AlphaLISA PRMT5 methylation assay (biotin-histone H4R3, SAM). In kind it is biochemical. The settings on record: PRMT5 methylation of histone H4R3, in vitro; read-out: IC50 using AlphaLISA. The method, then:
FIG. 1 is a schematic illustration of the AlphaLISA technique for the identification of small-molecule PRMT5 inhibitors. Biotinylated substrate (histone H4) is incubated with PRMT5 and methyl donor, S-adenosyl-1-methionine (SAM). PRMT5 symmetrically dimethylates the third arginine (R3) on biotin-H4 to form biotin-H4R3me2. This product is recognized by Acceptor beads specific for this methylation site. Donor beads have a streptavidin tag and bind to biotin-H4. Interaction between the Acceptor and Donor beads emits a chemiluminescent signal, which is detected by an ENVISION™ Reader (PerkinElmer, Waltham, MA). The methylation activity of PRMT5 is proportional to the intensity of this signal.
In order to identify PRMT5 inhibitors, the AlphaLISA technique (PerkinElmer, Waltham, MA) was adapted to an assay that could precisely quantify PRMT5 dimethylation of its substrate in a 384-well HTS platform (FIG. 1). The AlphaLISA high-throughput screen comprises incubating a biotinylated substrate (e.g., histone H4), PRMT5, and a methyl donor (e.g., S-adenosyl-1-methionine (SAM)); PRMT5 dimethylates the biotinylated substrate and the dimethylated biotinylated substrate is recognized by Acceptor beads specific for the methylation site. Donor beads comprising a tag (e.g., streptavadin) bind to the biotinylated substrate, and interaction between the Acceptor beads and Donor beads emits a signal (e.g., chemiluminescent signal), which can be detected. The methylation activity of PRMT5 is proportional to the intensity of the signal.
In one embodiment of the method used to identify the compounds disclosed herein, PRMT5 enzyme was purified with anti-Flag-M2 beads (Sigma-Aldrich, St. Louis, MO) from 293 cells overexpressing the Flag-PRMT5 protein (Wei et al., Proc Natl Acad Sci USA, 2013; 110: 13516-13521). The enzyme prep was diluted at 1:10 in assay buffer (30 mM Tris, pH 8.0, 1 mM DTT, 0.01% BSA, 0.01% Tween-20) before use. […] The plates were read using an ENVISION™ Reader (PerkinElmer, Waltham, MA).
A general note: Alpha assays give light when donor and acceptor beads are brought close together.

For assay [2], the system named is PRMT5-mediated p65 methylation. In words: Co-immunoprecipitation-Western blot of p65 dimethylation in 293-WT-p65-Flag cells. In kind it is cell-based. The note with it: 20 μM for 24 hours, compared to untreated control. An excerpt: FIGS. 2A-D depict the experimental results of studies to determine the PRMT5 inhibitory activity of a compound of formula (II), a compound of formula (III), and a compound of formula (IV). […] Flag beads were used to pull down WT-p65-Flag and samples were then probed with anti-symmetric dimethyl arginine motif Ab (sdme-RG Ab) to detect dimethylation levels of the p65 subunit.
Amongst the hits, the leading compounds were a compound of formula (II), specifically compound (IIa), a compound of formula (III), specifically compound (IIIa), and a compound of formula (IV), specifically compound (Iva). […] To determine whether compound (IIa) reduced p65 methylation of NF-κB, Flag-p65 expressing cells were treated with 20 μM compound (IIa) for 24 hours, Flag-p65 was then pulled down with anti-Flag-M2 beads and analyzed with Western blot by probing with anti-dimethylated arginine (FIG. 2B).
(In general: A western blot detects proteins with antibodies after separation by electrophoresis.)

Assay [3] concerns HT29 cells. As to the kind of experiment: Anchorage-independent (soft agar) growth assay in HT29 cells. The format is cell-based. The note with it: increasing concentrations. The method, then: as §1

Structures are written as SMILES. “Also recorded” adds a separate entry of the source.

T1 sequence (O14744 whole entry): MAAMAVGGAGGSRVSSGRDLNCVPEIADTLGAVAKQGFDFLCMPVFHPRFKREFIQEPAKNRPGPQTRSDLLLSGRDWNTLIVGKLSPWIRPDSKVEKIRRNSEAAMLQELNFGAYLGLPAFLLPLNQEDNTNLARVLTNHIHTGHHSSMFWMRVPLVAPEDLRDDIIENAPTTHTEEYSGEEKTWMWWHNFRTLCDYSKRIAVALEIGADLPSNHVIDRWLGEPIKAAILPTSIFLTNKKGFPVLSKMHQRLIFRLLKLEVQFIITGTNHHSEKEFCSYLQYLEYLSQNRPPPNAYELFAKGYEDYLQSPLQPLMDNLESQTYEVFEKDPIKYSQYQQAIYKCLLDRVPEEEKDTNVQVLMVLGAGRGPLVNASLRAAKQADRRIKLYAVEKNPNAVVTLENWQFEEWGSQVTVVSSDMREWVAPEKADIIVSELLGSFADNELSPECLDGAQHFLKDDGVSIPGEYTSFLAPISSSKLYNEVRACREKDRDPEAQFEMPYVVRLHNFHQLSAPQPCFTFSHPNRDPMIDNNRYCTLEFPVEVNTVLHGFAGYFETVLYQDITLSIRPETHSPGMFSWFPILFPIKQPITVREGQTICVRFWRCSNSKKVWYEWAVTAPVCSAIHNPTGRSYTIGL
T1 sequence (Q9BQA1 whole entry partner): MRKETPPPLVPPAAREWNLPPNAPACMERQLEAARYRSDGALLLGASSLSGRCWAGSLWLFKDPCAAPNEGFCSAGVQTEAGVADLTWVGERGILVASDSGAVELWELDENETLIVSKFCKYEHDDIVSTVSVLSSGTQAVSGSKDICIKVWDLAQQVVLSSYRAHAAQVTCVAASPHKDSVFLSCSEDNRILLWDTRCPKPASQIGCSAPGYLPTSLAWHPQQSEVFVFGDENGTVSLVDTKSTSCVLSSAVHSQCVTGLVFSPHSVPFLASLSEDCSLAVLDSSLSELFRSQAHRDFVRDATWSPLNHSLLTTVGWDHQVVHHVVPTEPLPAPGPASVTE

For the compound `Cc1ccc(Nc2nc(NCCN(C)C)nc3c2cnn3-c2ccccc2)cc1C` [compound (IIa)], the “tumor growth (tumor volume), HT29 xenograft” value in the assay with HT29 cells [1] is listed as “significant tumor inhibition effect; also recorded: inhibition of tumor growth”. In the assay on PANC1 cells, the “anchorage-independent growth / colony formation, PANC1 (PDAC)” value was “strongly inhibited colony formation; also recorded: significant decrease”. For the same compound, the IC50 at PRMT5 is around 7.5 µM. Also, the “methylation of PRMT5 substrate p65” value in assay [2] is “significantly inhibited PRMT5-mediated p65 methylation; also recorded: inhibited the methylation of PRMT5 substrate, p65”. For the same compound, the “anchorage-independent growth / colony formation, HT29 (CRC)” value in the assay on HT29 cells [3] is “strongly inhibited colony formation; also recorded: significant decrease”.

The IC50 is the concentration at which inhibition is half-maximal.
